The assay addresses KanJ (kanamycin B dioxygenase) (Streptomyces kanamyceticus, UniProt Q6L732). As to the kind of experiment: isothermal titration calorimetry. It is filed as binding. On the technique in general: Isothermal titration calorimetry measures the heat released or taken up as one component is titrated into another.

This passage reports Kd results from paper PMC8034593 (The FEBS journal, 2020).

Chain of KanJ (kanamycin B dioxygenase) (Q6L732 whole entry): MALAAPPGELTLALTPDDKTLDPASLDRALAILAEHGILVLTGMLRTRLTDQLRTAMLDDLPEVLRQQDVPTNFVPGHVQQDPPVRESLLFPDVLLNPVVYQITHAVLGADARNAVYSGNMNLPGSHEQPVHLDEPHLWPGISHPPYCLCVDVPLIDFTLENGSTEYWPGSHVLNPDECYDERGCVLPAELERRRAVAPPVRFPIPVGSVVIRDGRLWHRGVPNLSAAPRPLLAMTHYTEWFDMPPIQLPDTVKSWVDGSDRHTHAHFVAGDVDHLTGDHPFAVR

Compound `NC[C@H]1O[C@H](O[C@H]2[C@H](O)[C@@H](O[C@H]3O[C@H](CO)[C@@H](O)[C@H](N)[C@H]3O)[C@H](N)C[C@@H]2N)[C@H](N)[C@@H](O)[C@@H]1O` [KAN, kanamycin B] came in with a Kd of 1540 nM.

As a reminder, the Kd is the concentration at which binding is half-saturated.
